Where two headings read alike, the source gives them in different places.
Legend:
K-562 = assay: 3H-Thymidine uptake cell proliferation assay, K-562; format: cell-based; details: Homo sapiens, K562, 72 h incubation, read-out: Antiproliferative activity IC50, K-562
Procedure: (§1) ^3H-Thymidine uptake assay: ^3H-Thymidine-incorporation is directly proportional to the number of dividing cells in culture.
(§2) Exponentially growing cultures were subjected to different concentrations of test compounds and standard as given below.
(§3) Cells were seeded at a density of 3×10^3 to 5×10^3 per well (in 0.180 mL) in transparent 96 well tissue culture plate (NUNC, USA) and were allowed to incubate at 37° C. in 5% carbon dioxide incubator for 2-6 h. Test compounds were diluted in medium (RPMI1640 with 10% FBS) at various concentrations, and 0.02 mL of 10× stocks were added to each well in triplicate. Plates were incubated at 37° C. in 5% carbon dioxide incubator for 72 h, with an intermittent microscopic observation every 24 h.
(§4) After 72 h incubation, the plate was centrifuged at 1000 rpm for 10 mins in a plate centrifuge. Supernatant was carefully aspirated and ^3H-Thymidine was added to all wells at a concentration of 0.5 μCi/well in 0.1 mL complete medium. Plates were further incubated at 37° C. in 5% carbon dioxide incubator for 6-14 h.
(§5) The filter plate was dried completely at 60° C. for 1 h, or overnight (16 h) at room temperature (25° C.). […] The plate was sealed from the top, read on scintillation counter (TopCount, Packard), and percent inhibition and IC50 in comparison with control values was calculated.

K-562-R = assay: 3H-Thymidine uptake cell proliferation assay, K-562-R; format: cell-based; details: Homo sapiens, 72 h incubation, K-562-R (GLEEVEC resistant), read-out: Antiproliferative activity IC50, K-562-R
Procedure: as §1, §2, §3, §4, §5

32Dcl^Bcr-Abl T315I = biological target: T1, 32Dcl^Bcr-Abl T315I (Homo sapiens, UniProt P00519, T315I, cells depend on it); assay: 3H-Thymidine uptake cell proliferation assay, 32Dcl Bcr-Abl T315I; format: cell-based, Mouse; details: 72 h incubation, read-out: Antiproliferative activity IC50, 32Dcl^Bcr-Abl T315I
T1 construct: Mouse fibroblast with T315I mutated Bcr-Abl; fused on or other part: P11274 (Breakpoint cluster region protein)
Procedure: as §1, §2, §3, §4, §5

K562 = assay: CCK-8 cell proliferation and cytotoxicity assay, K562; format: cell-based, Human; details: Homo sapiens, K562, 72 h; read-out: Inhibitory concentration (IC50), K562
Ba/F3 Bcr-Abl/WT = biological target: T2, Ba/F3 Bcr-Abl/WT (Homo sapiens, UniProt P00519); assay: CCK-8 assay, Ba/F3 Bcr-Abl/WT; format: cell-based; details: CCK-8, 72 h, imatinib mesylate sensitive; read-out: Inhibitory concentration (IC50), Ba/F3 Bcr-Abl/WT
T2 construct: fused on or other part: P11274 (Breakpoint cluster region protein)
Text: (§6) The cell lines described in Table 3 were used to test the antiproliferative activity of test compounds.
(§7) Cell Counting Kit-8 (CCK-8) allows very convenient assay by utilizing Dojindo's highly water-soluble tetrazolium salt. CCK-8, being nonradioactive, allows sensitive colorimetric assay for the determination of number of viable cells in cell proliferation and cytotoxicity assays. The amount of the formazan dye generated by dehydrogenases in cells is directly proportional to the number of living cells. Thus, the CCK-8 assay can also be substituted for the H^3-Thymidine incorporation assay.
(§8) Plates were further incubated at 37° C., 5% CO2 incubator for 72 h. 10 μl of the CCK-8 solution was added to each well and plate was incubated for 1-4 h in the incubator. Measured the absorbance at 450 nm using a microplate reader.
(§9) A. The percent inhibition and IC50 were calculated in comparison with control values.

Ba/F3 Bcr-Abl/T315I = Ba/F3 Bcr-Abl/T315I (Homo sapiens, UniProt P00519, T315I, cells depend on it)
Text: as §6, §7, §8, §9

Ba/F3 Bcr-Abl/E255K = biological target: T3, Ba/F3 Bcr-Abl/E255K (Homo sapiens, UniProt P00519, E255K, cells depend on it); assay: CCK-8 assay, Ba/F3 Bcr-Abl/E255K; format: cell-based; details: mouse, 72 h
T3 construct: fused on or other part: P11274 (Breakpoint cluster region protein)

Ba/F3 Bcr-Abl/E255V = biological target: T4, Ba/F3 Bcr-Abl/E255V (Homo sapiens, UniProt P00519, E255V, cells depend on it); assay: CCK-8 assay, Ba/F3 Bcr-Abl/E255V; format: cell-based; details: mouse, 72 h
T4 construct: fused on or other part: P11274 (Breakpoint cluster region protein)

Ba/F3 Bcr-Abl/F317L = biological target: T5, Ba/F3 Bcr-Abl/F317L (Homo sapiens, UniProt P00519, F317L, cells depend on it); assay: CCK-8 assay, Ba/F3 Bcr-Abl/F317L; format: cell-based; details: mouse, 72 h
T5 construct: fused on or other part: P11274 (Breakpoint cluster region protein)

Ba/F3 Bcr-Abl/F359V = biological target: T6, Ba/F3 Bcr-Abl/F359V (Homo sapiens, UniProt P00519, F359V, cells depend on it); assay: CCK-8 assay, Ba/F3 Bcr-Abl/F359V; format: cell-based; details: mouse, 72 h
T6 construct: fused on or other part: P11274 (Breakpoint cluster region protein)

Ba/F3 Bcr-Abl/H396P = biological target: T7, Ba/F3 Bcr-Abl/H396P (Homo sapiens, UniProt P00519, H396P, cells depend on it); assay: CCK-8 assay, Ba/F3 Bcr-Abl/H396P; format: cell-based; details: mouse, 72 h
T7 construct: fused on or other part: P11274 (Breakpoint cluster region protein)

Ba/F3 Bcr-Abl/H396R = biological target: T8, Ba/F3 Bcr-Abl/H396R (Homo sapiens, UniProt P00519, H396R, cells depend on it); assay: CCK-8 assay, Ba/F3 Bcr-Abl/H396R; format: cell-based; details: mouse, 72 h
T8 construct: fused on or other part: P11274 (Breakpoint cluster region protein)

Ba/F3 Bcr-Abl/M244V = biological target: T9, Ba/F3 Bcr-Abl/M244V (Homo sapiens, UniProt P00519, M244V, cells depend on it); assay: CCK-8 assay, Ba/F3 Bcr-Abl/M244V; format: cell-based; details: mouse, 72 h
T9 construct: fused on or other part: P11274 (Breakpoint cluster region protein)

Ba/F3 Bcr-Abl/M351T = biological target: T10, Ba/F3 Bcr-Abl/M351T (Homo sapiens, UniProt P00519, M351T, cells depend on it); assay: CCK-8 assay, Ba/F3 Bcr-Abl/M351T; format: cell-based; details: mouse, 72 h
T10 construct: fused on or other part: P11274 (Breakpoint cluster region protein)

Ba/F3 Bcr-Abl/Q252H = biological target: T11, Ba/F3 Bcr-Abl/Q252H (Homo sapiens, UniProt P00519, Q252H, cells depend on it); assay: CCK-8 assay, Ba/F3 Bcr-Abl/Q252H; format: cell-based; details: mouse, 72 h
T11 construct: fused on or other part: P11274 (Breakpoint cluster region protein)

Ba/F3 Bcr-Abl/Y253F = biological target: T12, Ba/F3 Bcr-Abl/Y253F (Homo sapiens, UniProt P00519, Y253F, cells depend on it); assay: CCK-8 assay, Ba/F3 Bcr-Abl/Y253F; format: cell-based; details: mouse, 72 h
T12 construct: fused on or other part: P11274 (Breakpoint cluster region protein)

Ba/F3 Bcr-Abl/Y253H = biological target: T13, Ba/F3 Bcr-Abl/Y253H (Homo sapiens, UniProt P00519, Y253H, cells depend on it); assay: CCK-8 assay, Ba/F3 Bcr-Abl/Y253H; format: cell-based; details: mouse, 72 h
T13 construct: fused on or other part: P11274 (Breakpoint cluster region protein)

[1] = biological target: T14, p210^bcr-abl tyrosine kinase (Homo sapiens, UniProt P00519); assay: Bcr-abl kinase assay: autophosphorylation after immunoprecipitation from treated K-562 cells; format: cell-based; details: K-562 cells treated at IC50 and 3×IC50 for 24 h
T14 construct: immunoprecipitation of p210^bcr-abl tyrosine kinase from K-562 cell lysate; BCR (natural N-terminal fusion partner of the p210 BCR-ABL oncoprotein); endogenous in cells; host or cells: K-562 (human leukemic cell line); the other entry of the earlier key: BCR (P11274, Breakpoint cluster region protein)
Procedure: To study inhibition of autophosphorylation of Bcr-abl. Study was carried out by immunoprecipitation of p210^bcr-abl tyrosine kinase from K-562 cell lysate, followed by kinase enzyme assay. The reaction mixture was subjected to SDS-PAGE followed by autoradiography.
To check for the inhibition of autophosphorylation of p210^bcr-abl tyrosine kinase by compounds of the present invention, K-562 cells which express wild type Bcr-abl were used. […] Cells were washed with PBS solution and lysed using lysis buffer (CelLytic M Cell Lysis reagent, Sigma Aldrich, USA) for 2-3 h in cold conditions. Protein was estimated by Bradford method (Bradford reagent, Sigma Aldrich, USA). For immunoprecipitation equal amount of protein is taken from all samples. A p210^bcr-abl protein was immunoprecipitated using polyclonal anti-c-abl antibody (Santa Cruz Biotechnologies, USA) followed by incubation at 4° C. overnight with Protein A-Sepharose. […]
Kinase reaction was performed using 0.5 μCi (γ^32P)-adenosine triphosphate per reaction and incubated for 30 minutes at room temperature (25° C.). […] Autophosphorylation reaction products are resolved on SDS-PAGE and detected by autoradiography.

In the case of `COC(=O)C=Cc1ccc(O)c(O)c1` [Compound 2, 3-(3,4-Dihydroxy-phenyl)-acrylic acid methyl ester], the IC50 (K-562) is reported as 13.6 ± 2.3 µM, the IC50 (K-562-R) is reported as 23 µM and the GI50 (32Dcl^Bcr-Abl T315I) is reported as 35 µM. It also gave an IC50 (K562) of 13.3 ± 2.1 µM, a GI50 (Ba/F3 Bcr-Abl/WT) of 7.9 ± 2.1 µM and a GI50 (Ba/F3 Bcr-Abl/T315I; mouse, ba/f3 bcr-abl/t315i, 72 h) of 6.3 µM. The GI50 (Ba/F3 Bcr-Abl/T315I; read-out: Inhibitory concentration (IC50), Ba/F3 Bcr-Abl/T315I, CCK-8, 72 h, imatinib mesylate resistant, Table 4) was 3.8 ± 1.9 µM, the GI50 (Ba/F3 Bcr-Abl/E255K) was 15 µM and the GI50 (Ba/F3 Bcr-Abl/E255V) was 18.9 µM. It also gave a GI50 (Ba/F3 Bcr-Abl/F317L) of 23.5 µM, a GI50 (Ba/F3 Bcr-Abl/F359V) of 18.4 µM and a GI50 (Ba/F3 Bcr-Abl/H396P) of 26.2 µM. The GI50 (Ba/F3 Bcr-Abl/H396R) was 18.8 µM, the GI50 (Ba/F3 Bcr-Abl/M244V) was 30.1 µM and the GI50 (Ba/F3 Bcr-Abl/M351T) was 16.1 µM. The GI50 (Ba/F3 Bcr-Abl/Q252H) was 15.4 µM, the GI50 (Ba/F3 Bcr-Abl/Y253F) was 17 µM and the GI50 (Ba/F3 Bcr-Abl/Y253H) was 14.5 µM. For the same compound, the “Inhibition of autophosphorylation of Bcr-abl (band density, autoradiography)” value [1] was “potent Bcr-abl tyrosine kinase inhibitor”.
